Reference: article PMC8539250, “Synthesis and Anti-HIV Activity of a Novel Series of Isoquinoline-Based CXCR4 Antagonists” (Molecules, 2021)
Where two headings read alike, the source gives them in different places.

Assays:
[1] = molecular target: T1, CXCR4 (Homo sapiens, UniProt P61073); assay: CXCL12-induced calcium mobilization assay in U87.CD4.CXCR4 cells (FLIPR); type: cell-based; settings: concentration needed to inhibit CXCL12-induced calcium signaling by 50%, 6.25 nM CXCL12, mean ± SD
Experimental: (§1) First, the ability of the compounds to compete with fluorescently labeled CXCL12 (CXCL12^AF647) for binding at CXCR4 was determined. […] Finally, given the role of CXCR4 as a major coreceptor for HIV entry, the antiviral activity of the compounds against the X4-tropic wild type HIV-1 NL4–3 strain and the HIV-2 ROD strain was determined in MT-4 cells. In parallel, the cytotoxicity of the compounds for uninfected MT-4 cells was assessed.
The calcium mobilization assay has been described in detail previously. U87.CD4.CXCR4 cells (2 × 10^4 cells per well in DMEM/10% FBS/0.01 M HEPES) were seeded in gelatin-coated (Sigma-Aldrich; 0.1% gelatin in DPBS) black-walled 96-well plates and incubated overnight at 37 °C and 5% CO2. The next day, cells were loaded with the fluorescent calcium indicator Fluo-2 acetoxymethyl (AM) ester (4 μM; Abcam) and incubated at room temperature in the dark for 45 min. Then, cells were incubated with various concentrations of the compounds for 10 min prior to the addition of 6.25 nM CXCL12 (in assay buffer). Fluctuations in intracellular calcium levels were measured in real time by the FLIPR Tetra® (Molecular Devices, Sunnyvale, CA, USA) in all 96 wells simultaneously. The response over baseline (after CXCL12 addition) was calculated with the ScreenWorks 4.0® software (Molecular Devices, Version 4.0, www.moleculardevices.com, accessed on 10 January 2015) by dividing the obtained relative light units (RLUs) through the base line measured just before CXCL12 addition. From this the IC50 value for each compound was determined taking into account the negative (i.e., untreated cells without CXCL12 stimulation) and positive (i.e., untreated cells with CXCL12 addition) control samples.

[2] = test system: HIV-1 NL4.3; assay: Anti-HIV-1 assay in MT-4 cells (tetrazolium-based colorimetric, cytopathic effect); type: cell-based; settings: Human immunodeficiency virus 1, MT4
Experimental: (§2) First, the ability of the compounds to compete with fluorescently labeled CXCL12 (CXCL12^AF647) for binding at CXCR4 was determined. Second, since binding of CXCL12 to CXCR4 results into a transient increase of cytosolic calcium levels, the inhibition of this CXCL12-induced calcium mobilization by the various compounds was also investigated. […] In parallel, the cytotoxicity of the compounds for uninfected MT-4 cells was assessed. […] The CD4 cell line MT-4 was obtained from the American Type Culture Collection (Rockville, MD, USA) and cultured in RPMI 1640 medium (Gibco BRL, Gaithersburg, MD, USA) with 10% heat-inactivated fetal calf serum (Biowhittaker Europe, Verviers, Belgium) and 2 mmol/L L-glutamine (Gibco BRL). […] The anti-HIV-1 and anti-HIV-2 activity in MT-4 cells was determined using a tetrazolium-based colorimetric assay. […] Threefold dilutions of the drugs in 100 μL medium were added to duplicate wells of 96-well flat bottom plates (Iwaki Glass). […] The cytopathic effect induced by the virus was checked regularly microscopically. […] Each assay was performed at least three times. […] Absorbance was recorded using the VersaMax ELISA™ microplate reader (Molecular Devices) and analyzed with the Softmax Pro® software (Molecular Devices, Version 4.0, www.moleculardevices.com, accessed on 10 January 2015). Using mock-infected cells, the cytotoxic concentration 50 (CC50) of each compound was investigated.

[3] = test system: HIV-2 ROD; assay: Anti-HIV-2 assay in MT-4 cells (tetrazolium-based colorimetric, cytopathic effect); type: cell-based; settings: Human immunodeficiency virus 2, MT4
Experimental: as §2

[4] = Cytotoxicity in mock-infected MT-4 cells; type: cell-based; settings: human, mock-infected (uninfected) MT-4 cells, concentration reducing viability of mock-infected MT4 cells by 50%; mean ± SD
Experimental: (§3) First, the ability of the compounds to compete with fluorescently labeled CXCL12 (CXCL12^AF647) for binding at CXCR4 was determined. Second, since binding of CXCL12 to CXCR4 results into a transient increase of cytosolic calcium levels, the inhibition of this CXCL12-induced calcium mobilization by the various compounds was also investigated. […] In parallel, the cytotoxicity of the compounds for uninfected MT-4 cells was assessed. […] The CD4 cell line MT-4 was obtained from the American Type Culture Collection (Rockville, MD, USA) and cultured in RPMI 1640 medium (Gibco BRL, Gaithersburg, MD, USA) with 10% heat-inactivated fetal calf serum (Biowhittaker Europe, Verviers, Belgium) and 2 mmol/L L-glutamine (Gibco BRL). The anti-HIV-1 and anti-HIV-2 activity in MT-4 cells was determined using a tetrazolium-based colorimetric assay. This assay been described in detail before. Threefold dilutions of the drugs in 100 μL medium were added to duplicate wells of 96-well flat bottom plates (Iwaki Glass). […] The cytopathic effect induced by the virus was checked regularly microscopically. […] The absorbance was then recorded at 490 nm with a 96-well plate reader and compared with four cell control replicates (cells without virus and drugs) and four virus control wells (cells with virus but without drug). Each assay was performed at least three times. […] Absorbance was recorded using the VersaMax ELISA™ microplate reader (Molecular Devices) and analyzed with the Softmax Pro® software (Molecular Devices, Version 4.0, www.moleculardevices.com, accessed on 10 January 2015). Using mock-infected cells, the cytotoxic concentration 50 (CC50) of each compound was investigated.

[5] = molecular target: T1, CXCR4; assay: CXCL12AF647 competition binding assay with Jurkat cells (flow cytometry); design: endogenous in cells; host or cells: Jurkat cells
Experimental: as §1
The CXCL12^AF647 binding assay with Jurkat cells has been described previously. Briefly, Jurkat cells were resuspended in assay buffer [Hank’s Balanced Salt Solution (HBSS, Thermo Fisher Scientific), 20 mM HEPES buffer, 0.2% bovine serum albumin (Sigma-Aldrich), pH 7.4] at 3 × 10^5 cells per sample and then treated with various concentrations of the compound at room temperature for 15 min. Afterwards, the cells were incubated with 2.9 nM CXCL12^AF647 (in assay buffer) at room temperature for 30 min in the dark. Cells were fixed in 1% paraformaldehyde in DPBS and specific CXCL12^AF647 binding [i.e., mean fluorescence intensity (MFI)] was quantified by flow cytometry (FACSCanto^TM II; Becton Dickinson). Data were analyzed with FlowJo® Software. The 50% inhibitory concentration (IC50) was calculated for each compound relative to the negative (i.e., autofluorescence of untreated and unlabeled cells) and positive (i.e., untreated cells exposed to CXCL12^AF647 only) control.

[6] = test system: MT-4 cells; assay: Cytotoxicity in mock-infected MT-4 cells; type: cell-based; settings: MT4 cell line
Experimental: as §3

[7] = 50% protection of MT-4 cells against HIV-induced cytopathicity, mean ± SD, read-out: HIV-1 NL4.3 EC50
[8] = 50% protection of MT-4 cells against HIV-induced cytopathicity, mean ± SD, read-out: HIV-2 ROD EC50
[9] = concentration needed to inhibit CXCL12 receptor binding by 50%, Jurkat cells, 2.9 nM CXCL12AF647, mean ± SD
[10] = MT-4 cells, read-out: EC50 against HIV-1
[11] = MT-4 cells, read-out: EC50 against HIV-2

T1 sequence (P61073 whole entry): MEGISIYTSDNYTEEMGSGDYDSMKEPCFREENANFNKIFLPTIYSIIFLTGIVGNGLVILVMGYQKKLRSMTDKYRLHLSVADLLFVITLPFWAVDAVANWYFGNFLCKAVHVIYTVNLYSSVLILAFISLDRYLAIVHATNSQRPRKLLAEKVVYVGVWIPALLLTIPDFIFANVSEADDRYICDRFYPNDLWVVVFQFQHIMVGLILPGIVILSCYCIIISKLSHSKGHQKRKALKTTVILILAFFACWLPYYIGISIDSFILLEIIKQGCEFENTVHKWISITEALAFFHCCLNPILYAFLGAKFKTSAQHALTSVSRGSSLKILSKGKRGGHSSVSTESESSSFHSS

SMILES	IC50 [1] [nM]	EC50 [2, 7] [nM]	EC50 [3, 8] [nM]	CC50 at 4 d [4] [nM]	IC50 [5, 9] [nM]	EC50 [2, 10] [nM]	EC50 [3, 11] [nM]	cytotoxicity for the MT4 cell line (in words) [6]	IC50 ([5]; competition with CXCL12 for binding to CXCR4) [nM]
COc1cc2ccnc(CN(CCCCN)C3CCCc4cccnc43)c2cc1OC (stereo not drawn) [Compound 19a, N1-((6,7-Dimethoxyisoquinolin-1-yl)methyl)-N1-(5,6,7,8-tetrahydroquinolin-8-yl)butane-1,4-diamine]	25 ± 8.1	74 ± 27	42 ± 13	> 100000	7.2 ± 3.2	–	–	–	–
COc1ccc2c(CN(CCCCN)C3CCCc4cccnc43)nccc2c1 (stereo not drawn) [Compound 19b, N1-((6-Methoxyisoquinolin-1-yl)methyl)-N1-(5,6,7,8-tetrahydroquinolin-8-yl)butane-1,4-diamine]	28 ± 4.9	61 ± 31	77 ± 19	11100 ± 540	2.5 ± 1.2	–	–	–	–
NCCCCN(Cc1nccc2cc(F)ccc12)C1CCCc2cccnc21 (stereo not drawn) [Compound 19c, N1-((6-Fluoroisoquinolin-1-yl)methyl)-N1-(5,6,7,8-tetrahydroquinolin-8-yl)butane-1,4-diamine]	33 ± 21	16 ± 12	11 ± 5.6	18100 ± 6820	8.9 ± 5.6	–	–	–	–
NCCCCN(Cc1nccc2cc(Br)ccc12)C1CCCc2cccnc21 (stereo not drawn) [Compound 19d, N1-((6-Bromoisoquinolin-1-yl)methyl)-N1-(5,6,7,8-tetrahydroquinolin-8-yl)butane-1,4-diamine]	440 ± 210	550 ± 360	550 ± 360	43600 ± 1770	26 ± 1.7	–	–	–	–
NCCCCN(Cc1nccc2ccccc12)C1CCCc2cccnc21 (stereo not drawn) [Compound 19e, N1-(Isoquinolin-1-ylmethyl)-N1-(5,6,7,8-tetrahydroquinolin-8-yl)butane-1,4-diamine]	130 ± 41	84 ± 15	26 ± 30	26700 ± 18600	9.2 ± 4.2	< 100	< 100	lack cytotoxicity	–
NCCCCN(Cc1ccccn1)C1CCCc2cccnc21 (stereo not drawn) [Compound 20, N1-(Pyridin-2-ylmethyl)-N1-(5,6,7,8-tetrahydroquinolin-8-yl)butane-1,4-diamine]	–	58 ± 71	58 ± 22	55400 ± 720	–	< 100	< 100	lack cytotoxicity	–
COc1cc2ccnc(CN(CCCCN)Cc3ncccc3C)c2cc1OC [Compound 24a, N1-((6,7-dimethoxyisoquinolin-1-yl)methyl)-N1-((3-methylpyridin-2-yl)methyl)butane-1,4-diamine]	13 ± 5.3	23 ± 8	24 ± 1.8	> 100000	3.2 ± 0.99	< 100	< 100	lack cytotoxicity	–
COc1ccc2c(CN(CCCCN)Cc3ncccc3C)nccc2c1 [Compound 24b, N1-((6-Methoxyisoquinolin-1-yl)methyl)-N1-((3-methylpyridin-2-yl)methyl)butane-1,4-diamine]	3850 ± 190	> 9270	> 9270	9270 ± 460	890 ± 460	–	–	–	–
Cc1cccnc1CN(CCCCN)Cc1nccc2cc(Br)ccc12 [Compound 24d, N1-((6-Bromoisoquinolin-1-yl)methyl)-N1-((3-methylpyridin-2-yl)methyl)butane-1,4-diamine]	690 ± 230	2540 ± 910	2540 ± 910	29500 ± 9760	39 ± 24	–	–	–	–
Cc1cccnc1CN(CCCCN)Cc1nccc2ccccc12 [Compound 24e, N1-(Isoquinolin-1-ylmethyl)-N1-((3-methylpyridin-2-yl)methyl)butane-1,4-diamine]	930 ± 720	770 ± 290	2290 ± 350	40900 ± 6530	26 ± 14	–	–	–	–
Cc1cccnc1CN(CCCCN)Cc1ccccn1 [Compound 25, N1-((3-Methylpyridin-2-yl)methyl)-N1-(pyridin-2-ylmethyl)butane-1,4-diamine]	180 ± 23	230 ± 210	170 ± 160	79800 ± 13100	6.2 ± 0.57	–	–	–	0.6
c1cc(CN2CCCNCCNCCCNCC2)ccc1CN1CCCNCCNCCCNCC1 [Plerixafor, reference compound]	–	4.9 ± 3.2	8.1 ± 4.2	6290 ± 720	–	–	–	–	–
